What all share (format): cell-based
One assay concerns L1210 cells. As to the kind of experiment: Cytotoxicity, MTA (Microculture Tetrazolium Assay) test. The conditions noted are these: cytotoxicity on L1210 cells. The protocol: The cytotoxicity of compounds 5, 9, and 10-21 was determined in L1210 cells using the MTA (Microculture Tetrazolium Assay) test.
Another assay concerns Candida albicans. As to the kind of experiment: In vitro activity (MIC99) against Candida albicans. Conditions: > 99 % inhibition of growth; for MIC99: Candida albicans, read-out: MIC99 C. albicans. The protocol: The antifungal activity of compounds 5, 9, and 11-22 against Candida albicans was analyzed by the measure of the MIC99 concentration (see Table 1). Table 1. In Vitro Activity against Candida albicans of pyranodibenzofuran derivatives

Assay [1] has as its system Mycobacterium smegmatis mc^2155. The assay is described as follows: Mycobacterial growth inhibition in liquid culture (MIC99). The conditions noted are these: two-day's growth at 37°C, 99% decrease vs DMSO control; for MIC99: Mycolicibacterium smegmatis, MC2155|MC^2155, 48 h.
Assay [2] deals with Mycobacterium tuberculosis H37Rv. As to the kind of experiment: Mycobacterial growth inhibition in liquid culture, CFU plating (MIC99). The conditions noted are these: for MIC99: Mycobacterium tuberculosis, H37RV, 504 h.
The test system of another assay is M. bovis BCG (Pasteur). The assay is described as follows: microbe, parasite or virus in culture. The conditions noted are these: Mycobacterium tuberculosis variant bovis BCG.
A further assay relates to M. tuberculosis H37Ra. The assay is described as follows: Growth inhibition in liquid culture, CFU plating (MIC99). Conditions: Mycobacterium tuberculosis.
In assay [3] the test system is M. tuberculosis Beijing (GC1237). The description is as above. The conditions noted are these: Mycobacterium tuberculosis, read-out: MIC99.
For the next assay, the system named is M. microti (MYC-942272). Described as above.
Setting [4] is: H37Rv, three weeks growth in 7H9, CFU on 7H11, NI = no inhibition at 1 mg/mL.
The mark [5] stands for this setting: mc2155, read-out: MIC99 on M. smegmatis.
Setting [6] is: H37Rv, three weeks growth in 7H9, CFU on 7H11, NI = no inhibition at 1 mg/mL, read-out: MIC99 on M. tuberculosis.
The mark [7] stands for this setting: M. tuberculosis H37Rv, three week growth in 7H9/OADC, read-out: MIC99.
Where [8] appears, read: read-out: MIC99 on M. smegmatis, mc2155.

Converted amounts (≈) assume the structure as drawn. Read-outs that look alike come from different tables or passages of the source.

The term IC50 denotes the point on the concentration scale where inhibition reaches its midpoint. On to `CC1(C)Oc2ccc3oc4ccccc4c3c2C(=O)C1O` (racemic) [Compound 13, (±)2,3-dihydro-2-hydroxy-3,3-dimethyl-1H-benzofuro[3,2-f][1]benzopyran-1-one], for which the IC50 in the assay on L1210 cells (Mus musculus, read-out: IC50) turned out to be 5.04 µg/mL (≈ 17.9 µM). In the assay on Candida albicans, the MIC99 is above 330 µg/mL.
As for `CC(=O)O[C@H]1c2cc3oc4ccccc4c3cc2OC(C)(C)[C@H]1OC(C)=O` (racemic) [Compound 17, (±)cis-3,4-diacetoxy-3,4-dihydro-2,2-dimethyl-2H-benzofuro[2,3-g]-[1]-benzopyran], in the assay with L1210 cells (Mus musculus, read-out: IC50), the IC50 turned out to be 8.52 µg/mL (≈ 23.1 µM). The MIC99 in the assay with Candida albicans was above 400 µg/mL.
For `CC(=O)O[C@@H]1c2c(ccc3oc4ccccc4c23)OC(C)(C)[C@H]1OC(C)=O` (racemic) [Compound 19, (±)trans-1,2,-diacetoxy-1,2-dihydro-3,3-dimethyl-3H-benzofuro[3,2-f][1]benzopyran], in the assay with L1210 cells, the IC50 was found to be 5.5005 µg/mL (≈ 14.9 µM). Further, the “MIC99 C. albicans” value against Candida albicans was above 300 µg/mL. Also, in assay [1] (mc2155), the “MIC99 on M. smegmatis” value is 180 µg/mL (≈ 489 µM). Also, the “MIC99 on M. tuberculosis” value in assay [2] (setting [4]) is on record as “NI (No inhibition observed at the highest concentration tested (1 mg/mL))”.
Take `C=C1Oc2ccc3oc4ccccc4c3c2C1(C)C` [Compound 10, 1,2-dihydro-1,1-dimethyl-2-methylenebenzofuro[5,4-b]benzofuran]: the IC50 with L1210 cells (Mus musculus, read-out: IC50) was found to be 3.71 µg/mL (≈ 14.8 µM). Further, the MIC99 with Candida albicans is above 300 µg/mL.
`Clc1ccc(COC(Cn2ccnc2)c2ccc(Cl)cc2Cl)c(Cl)c1` (stereo not drawn) [Miconazole, reference compound]: in the assay with Candida albicans, the MIC99 lay within 0.25 to 60 µg/mL (≈ 0.601 to 144 µM).
Consider `NNC(=O)c1ccncc1` [INH, isoniazid, reference compound], for which the MIC99 in the assay on M. bovis BCG (Pasteur) is 1 µg/mL (≈ 7.29 µM); in the assay on M. tuberculosis H37Ra, 1 µg/mL (≈ 7.29 µM); in assay [3], 0.1 µg/mL (≈ 0.729 µM); in assay [1] (setting [5]) it was 13 µg/mL (≈ 94.8 µM); with M. microti (MYC-942272), 0.1 µg/mL (≈ 0.729 µM); in assay [2] (setting [6]), 0.1 µg/mL (≈ 0.729 µM). Further, the MIC99 in assay [2] (setting [7]) worked out at 0.1 µg/mL (≈ 0.729 µM). Further, the IC50 in the assay with L1210 cells (Mus musculus, read-out: IC50) turned out to be 14 µg/mL (≈ 102 µM).
Molecule “(±)cis-4H-3a,4,12b-trihydro-2,2-dimethyl-1,3-dioxolo[4,5-h]benzofuro[3,2-g]benzopyran [Compound 21]” returned an IC50 in the assay with L1210 cells of 12.8535 µg/mL. Also, the “MIC99 C. albicans” value in the assay on Candida albicans was above 400 µg/mL.
`CC(=O)O[C@@H]1c2c(ccc3oc4ccccc4c23)OC(C)(C)[C@@H]1OC(C)=O` (racemic) [Compound 18, (±)cis-1,2-diacetoxy-1,2-dihydro-3,3-dimethyl-3H-benzofuro[3,2-f][1]benzopyran]: the IC50 in the assay with L1210 cells (Mus musculus, read-out: IC50) is 9.35 µg/mL (≈ 25.4 µM). The MIC99 in the assay with Candida albicans is above 300 µg/mL.
`CC(=O)CC1(O)C(=O)c2c(ccc3oc4ccccc4c23)OC1(C)C` (racemic) [Compound 14, (±)2,3-dihydro-2-hydroxy-3,3-dimethyl-2-(2-oxopropyl)-1Hbenzofuro[3,2f][1]benzopyran-1-one] showed an IC50 with L1210 cells of 18.981 µg/mL (≈ 56.1 µM). In addition, the “MIC99 C. albicans” value with Candida albicans is 150 µg/mL (≈ 443 µM).
Consider `CC1(C)Oc2ccc3oc4ccccc4c3c2[C@@H](O)[C@@H]1O` (racemic) [Compound 15, (±)trans-1,2,-dihydro-1,2-dihydroxy-3,3-dimethyl-3H-benzofuro[3,2-f][1]benzopyran], for which, in the assay on L1210 cells, the IC50 worked out at 12.3405 µg/mL (≈ 43.4 µM). Also, the “MIC99 C. albicans” value with Candida albicans was above 300 µg/mL. Also, the “MIC99 on M. smegmatis” value in assay [1] (mc2155) came out at 30 µg/mL (≈ 106 µM). In addition, in assay [2] (setting [4]), the “MIC99 on M. tuberculosis” value was “NI (No inhibition observed at the highest concentration tested (1 mg/mL))”.
For `CC1(C)Oc2cc3c(cc2[C@H](O)[C@@H]1O)oc1ccccc13` (racemic) [Compound 11, (±)cis-3,4-dihydro-3,4-dihydroxy-2,2-dimethyl-2H-benzofuro[2,3-g]-[1]-benzopyran], in the assay with L1210 cells (Mus musculus, read-out: IC50), the IC50 turned out to be 13 µg/mL (≈ 45.7 µM). Further, the MIC99 with Candida albicans is 27 µg/mL (≈ 95 µM); in assay [1] (setting [8]) it was 30 to 60 µg/mL (≈ 106 to 211 µM); in assay [1] (setting [5]), 60 µg/mL (≈ 211 µM); in assay [2] (setting [6]) it was above 1000 µg/mL.
In turn, `CC(=O)OC1C(=O)c2c(ccc3oc4ccccc4c23)OC1(C)C` (racemic) [Compound 20, (±)2-acetoxy-2,3-dihydro-2-hydro-3,3-dimethyl-1H-benzofuro[3,2-f][1]benzopyran-1-one] registered a 50% inhibitory concentration (IC50) with L1210 cells of 28.5 µg/mL (≈ 87.9 µM). In addition, in the assay on Candida albicans, the “MIC99 C. albicans” value was above 280 µg/mL.
As for `C#CC(C)(C)Oc1ccc2oc3ccccc3c2c1` [Compound 5, 2-(1,1-dimethyl-propargyloxy)-dibenzofuran], the MIC99 is above 500 µg/mL in the assay on M. bovis BCG (Pasteur); above 500 µg/mL against M. tuberculosis H37Ra; above 500 µg/mL in assay [3]; 12 µg/mL (≈ 47.9 µM) in assay [1] (setting [8]); above 500 µg/mL against M. microti (MYC-942272); above 1000 µg/mL in assay [2] (setting [6]). Further, in assay [2] (setting [7]), the MIC99 was above 500 µg/mL.
Turning to `CC1(C)Oc2ccc3oc4ccccc4c3c2[C@@H](O)[C@H]1O` (racemic) [Compound 12, (±)cis-1,2-dihydro-1,2-dihydroxy-3,3-dimethyl-3H-benzofuro[3,2-f][1]benzopyran], the IC50 with L1210 cells (Mus musculus, read-out: IC50) stood at 1.3 µg/mL (≈ 4.57 µM). The MIC99 in the assay with Candida albicans is above 160 µg/mL; in assay [1] (setting [8]), 30 to 60 µg/mL (≈ 106 to 211 µM); in assay [1] (setting [5]), 30 µg/mL (≈ 106 µM); in assay [2] (setting [6]), 60 µg/mL (≈ 211 µM).

These data come from patent EP1770089A1, “Pyranodibenzofuran derivatives with antifungal and antibacterial activity” (priority 2005, dated 2007).
